From patent US12459894B2, “Orally active melanocortin receptor-4 compounds” (Palatin Technologies, Inc., priority 2018, dated 2025)
Marks after values point to notes of the source that are not given here.

Columns and labels:
mMC1r = target: T1, mMC1r (Mus musculus, UniProt Q01727); test: cAMP assay, B16-F1 cells, NDP-α-MSH reference; format: cell-based; details: vs NDP-α-MSH
T1 construct: endogenous in cells; host or cells: B16-F1 mouse melanoma cells
Protocol: (§1) Melanocortin receptor binding and function of Compound 7.1 was tested. Ki binding values (nM) were calculated utilizing the percent inhibit of the binding of iodine-125 labeled NDP-α-MSH against B16-F1 cells for mMC1r, and human recombinant CHO cells for hMC3r, hMC4r and hMC5r, with the inhibition constant calculated using the Cheng Prusoff equation. Functional results (EC50 and efficacy) were calculated utilizing cAMP assays with NDP-α-MSH for mMC1r, hMC3r and hMC4r, ACTH for hMC2r, and α-MSH for hMC5r for agonist measures, with the same target cells for melanocortin receptors mMC1r, hMC3r, hMC4r and hMC5r, and human recombinant Cloudman M3 cells for hMC2r.

hMC2r = target: T2, hMC2r (Homo sapiens, UniProt Q01718); test: cAMP assay, human recombinant Cloudman M3 cells, ACTH reference; format: cell-based; details: vs ACTH
T2 construct: expressed in transfected cells; host or cells: Cloudman M3 cells
T2 sequence (Q01718 whole entry): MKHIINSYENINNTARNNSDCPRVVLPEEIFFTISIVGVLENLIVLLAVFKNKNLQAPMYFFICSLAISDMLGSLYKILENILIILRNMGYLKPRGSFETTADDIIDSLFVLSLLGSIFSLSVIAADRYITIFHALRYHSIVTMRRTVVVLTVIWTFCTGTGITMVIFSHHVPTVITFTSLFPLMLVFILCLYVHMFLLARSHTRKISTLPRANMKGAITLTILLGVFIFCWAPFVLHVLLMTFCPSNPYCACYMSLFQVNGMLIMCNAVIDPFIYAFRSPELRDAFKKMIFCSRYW
T2 sequence (Q9D159 whole entry partner): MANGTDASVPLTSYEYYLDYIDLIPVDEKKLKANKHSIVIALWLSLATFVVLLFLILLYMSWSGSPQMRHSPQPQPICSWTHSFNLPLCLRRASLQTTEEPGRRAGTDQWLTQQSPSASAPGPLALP
Protocol: as §1

hMC3r = target: T3, hMC3r (Homo sapiens, UniProt P41968); test: cAMP assay, human recombinant CHO cells, NDP-α-MSH reference; format: cell-based; details: vs NDP-α-MSH
T3 construct: expressed in transfected cells; host or cells: CHO
T3 sequence (P41968 whole entry): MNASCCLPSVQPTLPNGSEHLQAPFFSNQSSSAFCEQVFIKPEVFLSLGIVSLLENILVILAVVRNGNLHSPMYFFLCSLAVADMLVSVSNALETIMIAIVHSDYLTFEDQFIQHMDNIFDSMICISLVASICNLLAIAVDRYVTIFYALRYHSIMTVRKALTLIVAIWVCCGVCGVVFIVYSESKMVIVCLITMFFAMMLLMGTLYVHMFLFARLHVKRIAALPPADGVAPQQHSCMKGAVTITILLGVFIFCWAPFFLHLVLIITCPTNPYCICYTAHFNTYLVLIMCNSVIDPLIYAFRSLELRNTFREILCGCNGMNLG
Protocol: as §1

hMC5r = target: T4, hMC5r (Homo sapiens, UniProt P33032); test: cAMP assay, human recombinant CHO cells, α-MSH reference; format: cell-based; details: vs α-MSH
T4 construct: expressed in transfected cells; host or cells: CHO
T4 sequence (P33032 whole entry): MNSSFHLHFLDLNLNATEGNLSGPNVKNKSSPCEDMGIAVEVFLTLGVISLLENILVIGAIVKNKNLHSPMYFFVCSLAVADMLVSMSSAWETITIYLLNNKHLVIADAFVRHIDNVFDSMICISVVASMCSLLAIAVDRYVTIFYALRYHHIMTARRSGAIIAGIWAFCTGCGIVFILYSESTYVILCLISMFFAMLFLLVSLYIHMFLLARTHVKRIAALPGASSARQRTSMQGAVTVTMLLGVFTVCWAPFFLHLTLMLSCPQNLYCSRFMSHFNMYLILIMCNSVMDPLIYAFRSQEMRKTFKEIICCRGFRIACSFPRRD
Protocol: as §1

C57BL/6 male DIO mice = test: Body weight and food intake in vivo study in diet induced obese (DIO) mice; parameters: species or system mouse
Protocol: Compound 7.1 was assessed in a body weight and food intake in vivo study in diet induced obese (DIO) mice. C57BL/6 male DIO mice were utilized, that were 17 weeks of age on arrival. Animals were pre-conditioned on a high-fat diet for 11 weeks by Jackson Labs. […] Animals were single housed within a limited access rodent facility, and provided ad libitum with a commercial rodent diet and free access to drinking water. Animals were randomized into five groups, a vehicle group, three dose levels of compound 7.1 (3 mg/kg, 10 mg/kg and 30 mg/kg), and Peptide A, a positive control cyclic peptide of the formula Ac-Arg-cyclo(Om-Asn-D-Phe-Arg-Trp-Glu)-NH2. Following three days of sham dosing, animals were dosed for three days, with vehicle or Compound 7.1 dosed orally once daily at within one hour of lights out in the AM, and Peptide A dosed by subcutaneous injection twice daily within one hour before lights out and six hours after lights out. Body weights were measured one hour prior to lights out, and feed weights were measured both one hour prior to lights out and six hours post lights out.
• *p<0.05 vs. sham (vehicle control) using two-way ANOVA followed by Dunnett's post-test. • **p<0.01 vs sham (vehicle control) using two-way ANOVA followed by Dunnett's post-test.

[1] = Plasma concentrations following oral administration; format: in vivo, Sprague-Dawley rats; details: Sprague-Dawley, rat, oral 30 mg/kg
Protocol: Plasma samples were measured at 15 minutes (2 animals) and 30 minutes, 1 hour, 2 hours, 4 hours, 8 hours and 24 hours (3 animals) post oral administration.

[2] = test system: male mice homogygous for the obese spontaneous mutation, Lep^ob; test: Oral administration in leptin-deficient obese mice; format: in vivo, mouse; details: 30 mg/kg twice daily for six consecutive days
Protocol: Male mice homogygous for the obese spontaneous mutation, Lep^ob, with resulting leptin protein deficiency, were individually housed with free access to feed and drinking water. All animals were sham-dosed twice daily for five days prior to initial drug administration, utilizing a vehicle dose of 3.2% mannitol and […] tris(hydroxymethyl)aminomethane at pH 7.4. On day 6 a cohort of the mice received compound 7.1 dissolved into the vehicle twice daily for six consecutive days at a dose of 30 mg/kg. Body weight of animals was measured daily, with data analyzed as the percent change from baseline of each individual animal, where baseline was defined as the average weight during the first three days of sham dosing. The averaged percent change from baseline of a vehicle group was then subtracted from each value to correct for continued weight gain or other study-wide factors. The change in body weight is shown in FIG. 3 starting on study day […], the first day of administration of compound 7.1.

MC4r (−/−) mice = test: Oral administration in MC4r knockout mice; format: in vivo, mouse; details: 30 mg/kg twice daily oral gavage
Protocol: (§2) Feed intake and body weight was evaluated in MCr4 knockout (MC4r −/−) mice (Jackson Laboratories) compared to C57BI/6 DIO mice. […] Feed weights were taken at time 0, 2, 6 and 24 hours post lights out. […] The change in body weight is shown in FIG. 4 starting on study day 5, the first day of administraton of compound 7.1. […] Additionally, there was a statistically significant mean difference, 2.8%, 95% Cl (1.281, 4.253), and p value<0.0001 between DIO mice receiving compound 7.1 and MC4r (−/−) receiving compound 7.1.

C57BI/6 DIO mice = test: Oral administration in DIO mice (comparison to MC4r knockout mice); format: in vivo, mouse
Protocol: as §2

MC4r = MC4r (Homo sapiens, UniProt P32245); test: cAMP assay, human recombinant CHO cells, NDP-α-MSH reference; format: cell-based; parameters: expressed in transfected cells; host or cells: CHO; details: vs NDP-α-MSH
Sequence of MC4r (P32245 whole entry): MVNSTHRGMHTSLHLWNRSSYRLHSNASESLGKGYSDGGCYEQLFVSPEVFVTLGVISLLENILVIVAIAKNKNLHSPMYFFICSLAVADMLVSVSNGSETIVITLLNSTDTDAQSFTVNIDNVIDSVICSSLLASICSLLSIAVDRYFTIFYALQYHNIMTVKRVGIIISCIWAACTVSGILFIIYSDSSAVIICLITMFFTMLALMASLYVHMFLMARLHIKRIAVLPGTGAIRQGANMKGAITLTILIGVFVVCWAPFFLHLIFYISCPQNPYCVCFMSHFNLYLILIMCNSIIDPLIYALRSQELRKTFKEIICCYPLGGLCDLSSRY
Protocol: as §1

T1 sequence (Q01727 whole entry): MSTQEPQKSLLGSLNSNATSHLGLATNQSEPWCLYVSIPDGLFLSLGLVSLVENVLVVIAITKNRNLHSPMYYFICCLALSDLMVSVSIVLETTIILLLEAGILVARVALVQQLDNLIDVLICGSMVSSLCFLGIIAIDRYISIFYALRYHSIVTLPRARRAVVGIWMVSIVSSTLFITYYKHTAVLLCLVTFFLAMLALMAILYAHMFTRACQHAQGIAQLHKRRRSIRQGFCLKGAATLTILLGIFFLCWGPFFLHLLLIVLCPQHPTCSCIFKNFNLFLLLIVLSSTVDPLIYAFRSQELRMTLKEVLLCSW

In the case of `CC(=O)N1CCC(N(CC(C)C)N2CCN(C(=O)[C@@H](Cc3ccc(Cl)cc3)NC(=O)C(C)(C)N)CC2)CC1` [Compound 7.1, N-[(1R)-2-[4-[(1-acetyl-4-piperidyl)-isobutyl-amino]piperazin-1-yl]-1-[(4-chlorophenyl)methyl]-2-oxo-ethyl]-2-amino-2-methyl-propanamide], the “cAMP Efficacy” value (mMC1r) is reported as 72%, the “cAMP Efficacy” value (hMC2r) is reported as 22% and the “cAMP Efficacy” value (hMC3r) is reported as 28%. For the same compound, the “cAMP Efficacy” value (hMC5r) was 20%, the “Body Weight Change (%) Mean” value (C57BL/6 male DIO mice; 3 mg/kg orally once daily, Day 0) was 0% and the “Food Intake - 24 Hours (g) Mean” value (C57BL/6 male DIO mice; 3 mg/kg orally once daily, Day 0, 24 hours post lights out) was 1.90 g. For the same compound, the “Body Weight Change (%) Mean” value (C57BL/6 male DIO mice; 3 mg/kg orally once daily, Day 1) was −1.97%, the “Food Intake - 24 Hours (g) Mean” value (C57BL/6 male DIO mice; 3 mg/kg orally once daily, Day 1, 24 hours post lights out) was 2.03 g and the “Body Weight Change (%) Mean” value (C57BL/6 male DIO mice; 3 mg/kg orally once daily, Day 2) was −2.92%. The “Food Intake - 24 Hours (g) Mean” value (C57BL/6 male DIO mice; 3 mg/kg orally once daily, Day 2, 24 hours post lights out) was 2.11 g, the “Body Weight Change (%) Mean” value (C57BL/6 male DIO mice; 3 mg/kg orally once daily, Day 3) was −3.80* % and the “body weight” value (C57BL/6 male DIO mice; 3 mg/kg, day 3) was “body weight loss on day 3”. The “Body Weight Change (%) Mean” value (C57BL/6 male DIO mice; 10 mg/kg orally once daily, Day 0) was 0%, the “Food Intake - 24 Hours (g) Mean” value (C57BL/6 male DIO mice; 10 mg/kg orally once daily, Day 0, 24 hours post lights out) was 1.82 g and the “Body Weight Change (%) Mean” value (C57BL/6 male DIO mice; 10 mg/kg orally once daily, Day 1) was −2.48* %. For the same compound, the “Food Intake - 24 Hours (g) Mean” value (C57BL/6 male DIO mice; 10 mg/kg orally once daily, Day 1, 24 hours post lights out) was 1.78 g, the “Body Weight Change (%) Mean” value (C57BL/6 male DIO mice; 10 mg/kg orally once daily, Day 2) was −3.77** % and the “Food Intake - 24 Hours (g) Mean” value (C57BL/6 male DIO mice; 10 mg/kg orally once daily, Day 2, 24 hours post lights out) was 2.20 g. For the same compound, the “Body Weight Change (%) Mean” value (C57BL/6 male DIO mice; 10 mg/kg orally once daily, Day 3) was −4.35** %, the “Body Weight Change (%) Mean” value (C57BL/6 male DIO mice; 30 mg/kg orally once daily, Day 0) was 0% and the “Food Intake - 24 Hours (g) Mean” value (C57BL/6 male DIO mice; 30 mg/kg orally once daily, Day 0, 24 hours post lights out) was 1.62* g. The “Body Weight Change (%) Mean” value (C57BL/6 male DIO mice; 30 mg/kg orally once daily, Day 1) was −4.41** %, the “Food Intake - 24 Hours (g) Mean” value (C57BL/6 male DIO mice; 30 mg/kg orally once daily, Day 1, 24 hours post lights out) was 1.60* g and the “Body Weight Change (%) Mean” value (C57BL/6 male DIO mice; 30 mg/kg orally once daily, Day 2) was −5.82** %. For the same compound, the “Food Intake - 24 Hours (g) Mean” value (C57BL/6 male DIO mice; 30 mg/kg orally once daily, Day 2, 24 hours post lights out) was 1.91* g, the “Body Weight Change (%) Mean” value (C57BL/6 male DIO mice; 30 mg/kg orally once daily, Day 3) was −7.08** % and the “feed intake” value (C57BL/6 male DIO mice; 30 mg/kg, 24 hours post lights out, entirety of the study, vs sham) was “significantly inhibited feed intake”. For the same compound, the “body weight” value (C57BL/6 male DIO mice; daily 10 mg/kg and 30 mg/kg, day 1 to 3) was “significant body weight loss”, the Tmax [1] was 2 h and the “decrease in body weight compared to vehicle controls” value [2] was 4.8%. The “food consumption vs vehicle only” value (MC4r (−/−) mice) was “no differences in food consumption”, the “food consumption vs vehicle only” value (C57BI/6 DIO mice; 30 mg/kg twice daily oral gavage, DIO mice, 6 and 24 hour timepoints) was “significantly decreased” and the “mean difference in body weight change between DIO mice and MC4r (−/−) mice receiving compound” value (C57BI/6 DIO mice; 30 mg/kg twice daily oral, p value<0.0001) was 2.8%. For the same compound, the “body weight vs own vehicle group” value (C57BI/6 DIO mice; 30 mg/kg two daily administrations via oral gavage, DIO mice) was “significant body weight loss”, the “mean percentage body weight change difference between treated group and vehicle” value (C57BI/6 DIO mice; DIO mice, 30 mg/kg twice daily oral) was 4.9% and the “cAMP Efficacy” value (MC4r) was 91%.
